Assay results reported in patent US5053070A, “Pyrimidine derivatives, preparation processes thereof, herbicide containing the same, and herbicidal compositions containing the same along with other active ingredient” (Mitsui Toatsu Chemicals, Incorporated, priority 1988, dated 1991).
Converted amounts (≈) assume the structure as drawn.

Legend:
peanut = experiment: Upland foliar application test (Test 3), crop injury; type: in vivo; conditions: 30 g ai/a, foliar spray at 2-3 leaves, 30th day
Method: (§1) Resin-made 1/10000-are pots were filled with the soil of an upland field. Redroot pigweed, common lambsquarters, foxtail meadow, johnsongrass, barnyardgrass, green foxtail, large crabgrass, soybean, peanut and cotton were separately seeded and were allowed to germinate in a green house. When each plant grew to the stage of 2-3 leaves, an emulsion formulated from a predetermined amount of each test compound in a similar manner to the method described in Formulation Example 11 was diluted with water to a predetermined dilution rate and then sprayed at an application rate equal to 5 l per are onto the foliage of each plant by means of a pressure-operated ULV (ultra low volume) sprayer. Influence to the crops and weeds were observed on the 30th day after the spray of the herbicides. The results are shown in Table 4 in which the degree of damages of each test plant and the degree of injury to each crop are shown in a similar manner to Test 2.

Sagittaria pygmaea [1] = experiment: Treatment of soil under submerged condition, pre-emergence (Test 4); type: in vivo; conditions: 30 g ai/a granule, 30 days later
Method: (§2) 1/5000-are Wagner pots were filled with soil. Seeds or tubers of barnyardgrass, Monochoria vaginalis, bulrush, Sagittaria pygmaea, Cyperus seroylnus and Eleocharis kuroguwai were seeded or planted under submerged condition. Two pairs of rice seedlings (2-3 leaf stage), which had been reared in advance, were transplanted to each pot and were allowed to germinate in a green house. Each pair consisted of two rice seedlings. One day later (before emergence of weeds), each pot was treated with a granule which had been prepared by processing a predetermined amount of the test composition in accordance with a similar method to the method described in Formulation Example 9. The state of emergence of weeds and the state of injury of rice were observed 30 days later.
(§3) In the table, the degrees of damages of the test plants and the degrees of injury of rice are shown in a similar manner to Example 2.

bulrush [2] = experiment: as above; type: in vivo; conditions: 30 g ai/a granule, 30 days later
Method: as §2, §3

barnyardgrass [3] = experiment: as above; type: in vivo; conditions: 30 g ai/a granule, 30 days later
Method: as §2, §3

[4] = system: ALS (acetolactate syntase); experiment: ALS enzyme assay (Test 1); type: biochemical, barnyardgrass; conditions: 1,000 ppm (0.5 mg/0.5 ml)
Method: To determine the selectivity in enzyme level between crops and weeds, and ALS enzyme assay was conducted using pea as a representative of broadleaf crops and barnyardgrass as a representative of narrowleaf weeds.
After seeds of pea and barnyardgrass were allowed to germinate at 25° C. for 8-14 days in a dark place, partially-purified suspensions (Suspensions A) of acetolactate syntase were separately obtained from seedlings in accordance with the method described in the literature, Plant Physiology, 75, 827-831.
In a test tube, 0.5 mg of one of test compounds was weighed, followed by the addition of 0.15 ml of a 20 mM K2 HPO4 solution and 0.25 ml of a reaction substrate medium which consisted of 40 mM of K2 HPO4, 40 mM of sodium pyruvate, 1 mM of TPP, 1 mM of MgCl2 and 20 μM of FAD so that 0.4 ml of a reaction solution (Solution B) was prepared. Added to 0.4 ml of Solution B was 0.1 ml of suspension A. After the resultant mixture was shaken for 1 hour in a thermostat water bath controlled at 30° C., 50 μl of 6N sulfuric acid were added to terminate the reaction.
Next, the reaction-terminated liquid mixture was transferred into a thermostat water bath controlled at 60° C. and was heated for 15 minutes. Thereafter, 0.5 ml of a 0.5% creatine solution and 0.5 ml of a 5% alkaline α-naphthol solution were added, and the resultant mixture was maintained at 60° C. for 15 minutes. As a result, the test solution developed a pink-red color. After the above operation, the absorbance of the test solution at 525 nm was measured by a spectrophotometer (Absorbance 1 of Test Compound).
On the other hand, the absorbance (Absorbance 2 of Blank) of a solution obtained by subjecting a portion of Solution B, said portion being free of the test compound, to the above operation and the absorbance (Absorbance 3 of sulfuric acid terminated) of another solution obtained by subjecting another portion of Solution B, said portion containing 50 μl of 6N sulfuric acid as a test compound, were measured at the same time. Based on the values of the respective measurements, the enzyme assay at 1,000 ppm (0.5 mg/0.5 ml) of each compound was determined. [formula]

rice [5] = experiment: Treatment of soil under submerged condition, post-emergence (Test 5), injury; type: in vivo; conditions: 30 g ai/a granule, 30 days later
Method: as §2, with “serroylnus” for “seroylnus”, “grow” for “germinate”, “When the barnyardgrass grew to two-leaf stage,” for “One day later (before emergence of weeds),”
(§4) In the table, the degrees of damages of the test plants and the degrees of injury of the rice are shown in a similar manner to Example 2.

johnsongrass = experiment: Upland foliar application test (Test 3); type: in vivo; conditions: 30 g ai/a, foliar spray at 2-3 leaves, 30th day
Method: as §1

redroot pigweed = experiment: Upland foliar application test (Test 3); type: in vivo; conditions: 30 g ai/a, foliar spray at 2-3 leaves, 30th day
Method: as §1

large crabgrass = experiment: Upland foliar application test (Test 3); type: in vivo; conditions: 30 g ai/a, foliar spray at 2-3 leaves, 30th day
Method: as §1

common lambsquarters = experiment: Upland foliar application test (Test 3); type: in vivo; conditions: 30 g ai/a, foliar spray at 2-3 leaves, 30th day
Method: as §1

green foxtail = experiment: Upland foliar application test (Test 3); type: in vivo; conditions: 30 g ai/a, foliar spray at 2-3 leaves, 30th day
Method: as §1

barnyardgrass [6] = experiment: Upland foliar application test (Test 3); type: in vivo; conditions: 30 g ai/a, foliar spray at 2-3 leaves, 30th day
Method: as §1

foxtail meadow = experiment: Upland foliar application test (Test 3); type: in vivo; conditions: 30 g ai/a, foliar spray at 2-3 leaves, 30th day
Method: as §1

Sagittaria pygmaea [7] = experiment: Treatment of soil under submerged condition, post-emergence (Test 5); type: in vivo; conditions: 30 g ai/a granule, 30 days later
Method: as §2, with “serroylnus” for “seroylnus”, “grow” for “germinate”, “When the barnyardgrass grew to two-leaf stage,” for “One day later (before emergence of weeds),”
as §4

bulrush [8] = experiment: as above; type: in vivo; conditions: 30 g ai/a granule, 30 days later
Method: as §2, with “serroylnus” for “seroylnus”, “grow” for “germinate”, “When the barnyardgrass grew to two-leaf stage,” for “One day later (before emergence of weeds),”
as §4

barnyardgrass [9] = experiment: as above; type: in vivo; conditions: 30 g ai/a granule, post-emergence (barnyardgrass two-leaf stage), 30 days later
Method: as §2, with “serroylnus” for “seroylnus”, “grow” for “germinate”, “When the barnyardgrass grew to two-leaf stage,” for “One day later (before emergence of weeds),”
as §4

rice [10] = experiment: Treatment of soil under submerged condition, pre-emergence (Test 4), injury; type: in vivo; conditions: 30 g ai/a granule, 30 days later
Method: as §2, §3

narrowleaf waterplantain = experiment: Petri dish test (Test 6); type: in vivo; conditions: 336 h; seeds on filter paper, 25° C., 14 days; read-out: I80 (ppm)
Method: A filter paper was placed in each glass-made Petri dish having a diameter of 9 cm. A compound dissolved in acetone was added in a predetermined amount. The filter paper was then dried in air to remove acetone. Seeds of narrowleaf waterplantain were placed on the filter paper and 10 ml of water were poured into the Petri dish. The seeds were allowed to grow at 25° C. in a bright room. Fourteen days later, the state of growth of narrowleaf water-plantain was observed.
In the table, the degree of damages of the test plant was determined by comparing the state of growth of the plant with that of the plant in an untreated group and is shown in accordance with the following standard: […]

Structure (SMILES) | Injury Peanut (peanut) | Herbicidal effects Sagittaria Pygmaea (Sagittaria pygmaea [1]) | Herbicidal effects Bulrush (bulrush [2]) | Herbicidal effects Barnyardgrass (barnyardgrass [3]) | Inhibitory activity (%) Barnyardgrass [4] | Injury Rice (rice [5]) | Herbicidal effects Johnsongrass (johnsongrass) | Herbicidal effects Redroot pigweed (redroot pigweed) | Herbicidal effects Large crabgrass (large crabgrass) | Herbicidal effects Common lambsquarters (common lambsquarters) | Herbicidal effects Green foxtail (green foxtail) | Herbicidal effects Barnyardgrass (barnyardgrass [6]) | Herbicidal effects Foxtail meadow (foxtail meadow) | Herbicidal effects Sagittaria Pygmaea (Sagittaria pygmaea [7]) | Herbicidal effects Bulrush (bulrush [8]) | Herbicidal effects Barnyardgrass (barnyardgrass [9]) | Injury Rice (rice [10]) | IC80 (narrowleaf waterplantain)
C#CCON=Cc1ccccc1Oc1nc(OC)cc(OC)n1 [Compound No. 13, 0-(2-propynyl)-2-(4,6-dimethoxy-2-pyrimidinyloxy)benzaldoxime] | 0 (91-100 (No damages)) | 4 (6-10 (Severe damages)) | 5 (0-5 (Death)) | 4 (6-10 (Severe damages)) | 85% | 0 (91-100 (No damages)) | 5 (0-5 (Death)) | 5 (0-5 (Death)) | 5 (0-5 (Death)) | 4 (6-10 (Severe damages)) | 5 (0-5 (Death)) | 5 (0-5 (Death)) | 5 (0-5 (Death)) | 3 (11-40 (Medium damages)) | 4 (6-10 (Severe damages)) | 5 (0-5 (Death)) | 1 (71-90 (Slight damages)) | 5 µg/mL (≈ 16 µM)
C=C(Cl)CON=Cc1ccccc1Oc1nc(OC)cc(OC)n1 [Compound No. 14] | 0 (91-100 (No damages)) | 5 (0-5 (Death)) | 3 (11-40 (Medium damages)) | 5 (0-5 (Death)) | 56% | 1 (71-90 (Slight damages)) | 5 (0-5 (Death)) | 4 (6-10 (Severe damages)) | 5 (0-5 (Death)) | 4 (6-10 (Severe damages)) | 5 (0-5 (Death)) | 5 (0-5 (Death)) | 5 (0-5 (Death)) | 4 (6-10 (Severe damages)) | 5 (0-5 (Death)) | 5 (0-5 (Death)) | 0 (91-100 (No damages)) | 100 µg/mL (≈ 286 µM)
COc1cc(OC)nc(Oc2ccccc2C=NOCc2ccccc2)n1 [Compound No. 15] | 0 (91-100 (No damages)) | 3 (11-40 (Medium damages)) | 1 (71-90 (Slight damages)) | 4 (6-10 (Severe damages)) | 23% | 1 (71-90 (Slight damages)) | 5 (0-5 (Death)) | 5 (0-5 (Death)) | 4 (6-10 (Severe damages)) | 5 (0-5 (Death)) | 5 (0-5 (Death)) | 5 (0-5 (Death)) | 4 (6-10 (Severe damages)) | 3 (11-40 (Medium damages)) | 4 (6-10 (Severe damages)) | 5 (0-5 (Death)) | 1 (71-90 (Slight damages)) | 100 µg/mL (≈ 274 µM)
COc1cc(OC)nc(Oc2ccccc2C=NOCc2ccc(Cl)cc2Cl)n1 [Compound No. 17] | 0 (91-100 (No damages)) | 3 (11-40 (Medium damages)) | 4 (6-10 (Severe damages)) | 4 (6-10 (Severe damages)) | 15% | 0 (91-100 (No damages)) | 5 (0-5 (Death)) | 4 (6-10 (Severe damages)) | 3 (11-40 (Medium damages)) | 4 (6-10 (Severe damages)) | 5 (0-5 (Death)) | 3 (11-40 (Medium damages)) | 3 (11-40 (Medium damages)) | 3 (11-40 (Medium damages)) | 4 (6-10 (Severe damages)) | 3 (11-40 (Medium damages)) | 0 (91-100 (No damages)) | 100 µg/mL (≈ 230 µM)
